The species entered for test [1] is Rattus norvegicus. In words: Compound was tested for the inhibition of [3H]D-aspartate radioligand uptake into Synaptosomes in synaptic plasma membrane prepared from rat forebrain. In kind it is functional.
The target of test [2] is Glutamate receptor ionotropic, kainate. In words: Compound was tested for the inhibition of [3H]kainate radioligand binding to Ionotropic glutamate receptor kainate in synaptic plasma membrane prepared from rat forebrain. In kind it is cell membranes, Brain/Plasma.
In test [3] the target is T1, Glutamate receptor ionotropic, AMPA (Rattus norvegicus, UniProt P19490+P19491+P19492+P19493). In words: Compound was tested for the inhibition of [3H]AMPA radioligand binding to Ionotropic glutamate receptor AMPA in synaptic plasma membrane prepared from rat forebrain; very weak inhibition. In kind it is cell membranes, Brain/Plasma.
The target in test [4] is Glutamate NMDA receptor. In words: Compound was tested for the inhibition of [3H]L-Glutamate radioligand binding to NMDA receptor in synaptic plasma membrane prepared from rat forebrain; very weak inhibition. In kind it is cell membranes, Brain/Plasma.
For test [5], the species on record is Rattus norvegicus. In words: Compound was tested for the inhibition of [3H]D-aspartate radioligand uptake into Synaptosomes in synaptic plasma membrane prepared from rat forebrain; very weak inhibition. In kind it is functional, Brain/Plasma.
In test [6] the target is Glutamate NMDA receptor. In words: Compound was tested for the inhibition of [3H]L-Glutamate radioligand binding to NMDA receptor in synaptic plasma membrane prepared from rat forebrain. In kind it is cell membranes, Brain/Plasma.
Test [7] has as its target T1, Glutamate receptor ionotropic, AMPA. In words: Compound was tested for the inhibition of [3H]AMPA radioligand binding to Ionotropic glutamate receptor AMPA in synaptic plasma membrane prepared from rat forebrain. In kind it is cell membranes, Brain/Plasma.

On to `CC(C)[C@H]1CN[C@H](C(=O)O)[C@H]1CC(=O)O` [DIHYDROKAINATE], for which the Ki in the test listed under Rattus norvegicus [1] was 30 µM; in test [2], 16 µM; in test [3] it was more than 500 µM; on Glutamate NMDA receptor [4], more than 300 µM.

With `O=C(O)C[C@H]1CCN[C@@H]1C(=O)O` [TRANS-CPPA], the Ki in test [2] was 1.6 µM; in the test filed under Rattus norvegicus [5] it was more than 250 µM; on Glutamate NMDA receptor [6], 0.5 µM; in test [7], 106 µM.

For orientation: Ki means a dissociation constant, usually derived from enzyme kinetics or from competition with a known ligand. Lower therefore signals tighter binding.

Values taken from ChEMBL document CHEMBL1129115, “The role of the C-4 side chain of kainate and dihydrokainate in EAA receptor and transporter selectivity” (Bioorg Med Chem Lett, 1996).
